{"source": "patent US10463532B2", "about": "“Method for placing implant in choroid that can less invasively and simply place implant in choroid in optic disc-macula area” (priority 2016, dated 2019)", "key": {"[1]": {"test": "Experiment 1: dexamethasone concentration in the retina after intravitreal, intrascleral or intrachoroidal gelatin implant (LC/MS/MS)", "format": "in vivo, Japanese white rabbits", "details": "Japanese white, rabbit, 3 μg", "protocol": "Experiments were performed to determine the drug release effect of an intrachoroidal implant, an intravitreal implant, and an intrascleral implant. In Experiment 1, the implant was placed in the choroid using the known method illustrated in FIG. 10. […] Therefore, the implant was placed in the choroid using the known method in order to compare the intravitreal implant, the intrascleral implant, and the intrachoroidal implant as to the drug release effect.\nGelatin was cut to have a size of 0.3 (length)×0.3 (width)×0.1 (thick) mm.\nTwelve 3-month-old Japanese white rabbits (purchased from Japan SLC, Inc., weight: 2 to 2.5 kg) were used as subjects. The rabbits were equally divided into an intrachoroidal implant group, an intravitreal implant group, and an intrascleral implant group, and the implant was placed in one of the eyes of each rabbit belonging to each group.\nRegarding the intrachoroidal implant group, the vitreous gel in the eyeball was liquefied, and the implant was placed in the choroid using the known method for placing an implant in the choroid. The implant was placed in the choroid at a position 6 mm below the cornea.\nRegarding the intravitreal implant group, the implant was placed in the vitreous body at a position 2 mm above the cornea.\nRegarding the intrascleral implant group, the implant was placed in the sclera at a position 6 mm below the cornea.\nThe eyeball was removed from each rabbit (four rabbits) belonging to each group when 1, 3, and 24 hours had elapsed after the placement of the implant. […] In FIG. 14, the symbol “*” indicates P<0.05, and the symbol “**” indicates P<0.01."}, "[2]": {"test": "Experiment 2: dexamethasone concentration in the retina after DEX-PLA implant placed in the choroid near the optic disc (LC/MS/MS)", "format": "in vivo, Japanese white rabbits", "details": "Japanese white, rabbit, other: intrachoroidal implant near the optic disc, 3 μg", "text": "Nine 3-month-old Japanese white rabbits (purchased from Japan SLC, Inc., weight: 2 to 2.5 kg) were used as subjects, and the implant was placed in one of the eyes of each rabbit.\nThe implant was placed in the choroid using the method for placing an implant in the choroid according to the embodiments of the invention. Specifically, the conjunctiva was incised, and an injection needle having a size of 25G was inserted between the conjunctiva and the sclera. The tip of the injection needle was advanced to the vicinity of the optic disc along the surface of the sclera. After placing a vitrectomy lens over the cornea so that the eyeground could be observed, the tip of the injection needle appearing white was observed while observing the eyeground through the vitrectomy lens and pressing the sclera using the tip of the injection needle. The tip of the injection needle was moved to determine an appropriate insertion position of the implant in the vicinity of the optic disc, and the tip of the injection needle was inserted diagonally into the sclera. The tip of the injection needle was advanced into the choroid, and the implant was inserted into the choroid through the tip opening formed at the tip of the injection needle.\nThe eyeball was removed from each rabbit (three rabbits) belonging to each group when 24 hours, 1 week, and 3 weeks had elapsed after the placement of the implant."}}, "data": [{"compound": "C[C@@H]1C[C@H]2[C@@H]3CCC4=CC(=O)C=C[C@]4(C)[C@@]3(F)[C@@H](O)C[C@]2(C)[C@@]1(O)C(=O)CO", "note": "[dexamethasone]", "values": [{"measurement": "concentration at 1 h", "setting": "[1]; other: intrachoroidal implant", "value": "409 ± 115", "unit": "ng/g"}, {"measurement": "concentration at 3 h", "setting": "[1]; other: intrachoroidal implant", "value": "23.8 ± 10.2", "unit": "ng/g"}, {"measurement": "concentration at 24 h", "setting": "[1]; other: intrachoroidal implant", "value": "4.7 ± 3.3", "unit": "ng/g"}, {"measurement": "concentration at 1 h", "setting": "[1]; other: intrascleral implant", "value": "122 ± 79.7", "unit": "ng/g"}, {"measurement": "concentration at 3 h", "setting": "[1]; other: intrascleral implant", "value": "5.4 ± 4", "unit": "ng/g"}, {"measurement": "concentration at 24 h", "setting": "[1]; other: intrascleral implant", "value": "3.3 ± 3.2", "unit": "ng/g"}, {"measurement": "concentration at 1 h", "setting": "[1]; other: intravitreal implant", "value": "13.5 ± 8.7", "unit": "ng/g"}, {"measurement": "concentration at 3 h", "setting": "[1]; other: intravitreal implant", "value": "3.6 ± 4.2", "unit": "ng/g"}, {"measurement": "concentration at 24 h", "setting": "[1]; other: intravitreal implant", "value": "4.2 ± 4.5", "unit": "ng/g"}, {"measurement": "concentration at 1 week", "setting": "[2]", "value": "41.2 ± 14.2", "unit": "ng/g"}, {"measurement": "concentration at 3 weeks", "setting": "[2]", "value": "17.2 ± 11.3", "unit": "ng/g"}, {"measurement": "concentration at 24 h", "setting": "[2]", "value": "159 ± 28.2", "unit": "ng/g"}]}]}
